In article PMC9947975, “Design, Synthesis, and Biological Evaluation Studies of Novel Naphthalene-Chalcone Hybrids As Antimicrobial, Anticandidal, Anticancer, and VEGFR-2 Inhibitors” (ACS Omega, 2023):
In brackets after ≈: the same amount, converted by molar mass.

Key:
E. faecalis (ATCC 2942) = test: Antibacterial activity, MIC50 by resazurin fluorometric measurement; assay type: cell-based, Enterococcus faecalis; conditions: for MIC50: Enterococcus faecalis, ATCC2942, means of triplicate assays
Experimental: (§1) Obtained compounds (2a–2j) were evaluated for antibacterial activity against Escherichia coli (E. coli) (ATCC 25922), Pseudomonas aeruginosa (P. aeruginosa) (ATCC 27853), […] (E. faecalis) (ATCC 2942), Bacillus subtilis (B. subtilis) (ATCC 6051), Staphylococcus aureus (S. aureus) (ATCC 29213), and Staphylococcus epidermidis (S. epidermidis) (ATCC 12228). MIC50 values were determined via fluorometric measurements, using resazurin solution.[13] Azithromycin was used as a standard drug in the antibacterial activity test.
(§2) The antimicrobial activity of obtained derivatives (2a–2j) was screened on six bacterial and three fungal strains according to the standard procedure of CLSI[20] as described in the previous study.[21] The antibacterial activities of the obtained compounds were screened against B. subtilis (ATCC 6051), E. coli (ATCC 25922), E. faecalis (ATCC 2942), P. aeruginosa (ATCC 27853), S. aureus (ATCC 29213), and S. epidermidis (ATCC 12228). The obtained compounds were evaluated for anticandidal activity against C. albicans (ATCC 24433), C. krusei (ATCC 6258), and C. parapsilopsis (ATCC 22019). For antibacterial activity, azithromycin was utilized as a reference drug, whereas voriconazole and fluconazole were used for anticandidal activity.

HepG2 cell line = test: MTT cytotoxicity test; assay type: cell-based; conditions: Homo sapiens, 24-h treatment, means of quartet assays ± SEM
Experimental: (§3) The MTT test was performed using 3 different cell lines for calculated IC50 values of obtained compounds. […] For this purpose, the cytotoxic effects of the compounds against the healthy mouse fibroblast cell (NIH3T3) were investigated.
(§4) The 3-(4,5-dimethylthiazol-2-yl)-2,5-diphenyltetrazolium salt reduction method, or MTT assay, is used to measure the metabolic activity of live cells. […] Doxorubicin is used as a therapeutic drug. MTT assays were carried out as previously explained.[19]

A549 cell line [1] = test: MTT cytotoxicity test; assay type: cell-based; conditions: Homo sapiens, A549, 24 h, MTT, 24-h treatment, means of quartet assays ± SEM
Experimental: as §3, §4

B. subtilis (ATCC 6051) = test: Antibacterial activity, MIC50 by resazurin fluorometric measurement; assay type: cell-based; conditions: Bacillus subtilis, ATCC6051; means of triplicate assays
Experimental: as §1, §2

[2] = test system: P. aeruginosa (ATCC 27853); test: as above; assay type: cell-based; conditions: Pseudomonas aeruginosa, ATCC27853; means of triplicate assays
Experimental: as §1, §2

E. coli (ATCC 25922) = test: as above; assay type: cell-based; conditions: Escherichia coli, ATCC25922; means of triplicate assays
Experimental: as §1, §2

[3] = test system: healthy mouse fibroblast cell (NIH3T3); test: MTT cytotoxicity test on healthy cells; assay type: cell-based; conditions: 24-h treatment, means of quartet assays ± SEM
Experimental: as §3, §4

C. krusei (ATCC 6258) = test: Anticandidal activity, MIC50 by resazurin fluorometric measurement; assay type: cell-based, Candida krusei; conditions: Pichia kudriavzevii, ATCC6258, means of triplicate assays
Experimental: (§5) Obtained compounds (2a–2j) were evaluated for anticandidal activity against Candida albicans (C. albicans) (ATCC 24433), Candida krusei (C. krusei) (ATCC 6258), and Candida parapsilopsis (C. parapsilopsis) (ATCC 22019). MIC50 values were determined via fluorometric measurements, using resazurin solution.[13] Voriconazole and fluconazole were used as a standard drug in the anticandidal activity test. […] In general, it is seen that the 2-methoxyethyl substituent increases the anticandidal activity.
as §2

[4] = test system: S. epidermidis (ATCC 12228); test: Antibacterial activity, MIC50 by resazurin fluorometric measurement; assay type: cell-based, Staphylococcus epidermidis; conditions: Staphylococcus epidermidis, ATCC12228, means of triplicate assays; read-out: MIC50 S. epidermis
Experimental: as §1, §2

C. albicans (ATCC 24433) = test: Anticandidal activity, MIC50 by resazurin fluorometric measurement; assay type: cell-based, Candida albicans; conditions: Candida albicans, ATCC24433, means of triplicate assays
Experimental: as §5, §2

S. aureus (ATCC 29213) = test: Antibacterial activity, MIC50 by resazurin fluorometric measurement; assay type: cell-based, Staphylococcus aureus; conditions: Staphylococcus aureus, ATCC29213, means of triplicate assays
Experimental: as §1, §2

[5] = test system: C. parapsilopsis (ATCC 22019); test: Anticandidal activity, MIC50 by resazurin fluorometric measurement; assay type: cell-based, Candida parapsilopsis; conditions: Candida, ATCC22019; means of triplicate assays
Experimental: as §5, §2

carcinogenic cell lines [6] = test: Flow cytometric analysis of apoptosis and necrosis (Apoptosis, Necrosis and Healthy Cell Quantitation Kit Plus); assay type: cell-based; conditions: IC50 concentration, 24-h incubation
carcinogenic cell lines [7] = test: as above; assay type: cell-based; conditions: IC50 concentration, 24-h incubation; remark: listed apart in the source
From the text: The flow cytometer was used to calculate the percentages of apoptotic and necrotic cells in four different quadrants, which are denoted by the letters “UL, UR, LL, LR” (Upper Left, Upper Right, Lower Left, Lower Right). The four distinct quadrants in the diagram represent the following areas, respectively: Apoptotic or early apoptotic cells, LR: CF488A+/(EthD-III)-; necrotic or late apoptotic cells, […]: CF488A+/(EthD-III)+; intact cells, LL: CF488A/(EthD-III); and dead or necrotic cells, UR: CF488A+/(EthD-III)+. The IC50 concentration of each substance was used in administration.
Death pathway of the carcinogenic cell lines was detected by Apoptosis, Necrosis and Healthy Cell Quantitation Kit Plus (Cat: 30066, Biotium, Hayward, CA, USA)[22] as reported in the manufacturer’s instruction. The IC50 values for doxorubicin and compound 2j were applied. Cells were collected by centrifugation at 1200 rpm for 5 min following a 24-h incubation period. It was washed 2 times with PBS, centrifuged and turned into pellets. One ×10^6 cells/mL of annexin were suspended in V-FITC binding buffer. Ethidium iodide ([…]), Hoestch 1 mL, and annexin V-FITC ([…]) were added to stain cells and using the CytoFLEX Flow Cytometer (Beckman Coulter Life Sciences, USA) and CytExpert for CytoFLEX Acquisition and Analysis Software Version 2.2.0.97 instrument. Fluorescence measurements were made using a flow cytometer in accordance with the instrument procedure.

A549 cell line [8] = test: Analysis of mitochondrial membrane potential (MMP) by flow cytometry, JC-1 dye; assay type: cell-based; conditions: A549, IC50 concentration, 24-h incubation
Experimental: After a 24-h incubation period, mitochondrial membrane potential was measured with JC-1 dye.
The BD Mitoscreen Mitochondrial Membrane Potential Detection JC-1 Kit (available from ref ([23])) was used for the MMP test. First, A549 cells were seeded in 25 mL flasks and incubated for 24 h in a 5% CO2 incubator. […] At the end of this period, cells were collected and centrifuged in accordance with the kit contents. After the upper part was removed, JC-1 dye was added and incubated at 37 °C for 10–15 min. At the end of the period, it was washed 2 times with washing solution and reading was done with the appropriate procedure using the CytoFLEX Flow Cytometer (Beckman Coulter Life Sciences, USA) and CytExpert for CytoFLEX Acquisition and Analysis Software Version 2.2.0.97.

MIC50 (E. faecalis (ATCC 2942)) [µg/mL] | MIC50 (B. subtilis (ATCC 6051)) [µg/mL] | MIC50 [2] [µg/mL] | MIC50 (E. coli (ATCC 25922)) [µg/mL] | MIC50 (C. krusei (ATCC 6258)) [µg/mL] | MIC50 [4] [µg/mL] | melting point [°C] | MIC50 (C. albicans (ATCC 24433)) [µg/mL] | MIC50 (S. aureus (ATCC 29213)) [µg/mL] | MIC50 [5] [µg/mL] | MIC50 E. faecalis (E. faecalis (ATCC 2942); means of triplicate assays) [µg/mL] | SMILES | IC50 (HepG2 cell line) [µM] | IC50 (A549 cell line [1]) [µM] | IC50 [3] [µM] | late apoptosis (Q1-UR) (carcinogenic cell lines [6]) [%] | early apoptosis (Q1-LR) (carcinogenic cell lines [7]) [%] | intact cells (Q1-LL) (carcinogenic cell lines [7]) [%] | necrosis (Q1-UL) (carcinogenic cell lines [7]) [%] | rate of apoptosis (early + late apoptosis) (carcinogenic cell lines [7]) [%] | mitochondrial membrane potential (P3) (A549 cell line [8]) [%]
31.3 (≈ 87.8 µM) | > 100 | 62.5 (≈ 175 µM) | > 100 | 62.5 (≈ 175 µM) | 62.5 (≈ 175 µM) | 150.2 to 152.1 | 31.3 (≈ 87.8 µM) | > 100 | 62.5 (≈ 175 µM) |  | CN1CCN(c2ccc(C(=O)C=Cc3cccc4ccccc34)cc2)CC1 [2a, 1-(4-(4-Methylpiperazin-1-yl)phenyl)-3-(naphthalen-1-yl)prop-2-en-1-one] | > 100 | > 100 | 61.9 ± 1.42 |  |  |  |  |  | 
31.3 (≈ 84.5 µM) | > 100 | 62.5 (≈ 169 µM) | > 100 | 62.5 (≈ 169 µM) | 31.3 (≈ 84.5 µM) | 164.6 to 166.1 | 15.6 (≈ 42.1 µM) | 31.3 (≈ 84.5 µM) | > 100 |  | CCN1CCN(c2ccc(C(=O)C=Cc3cccc4ccccc34)cc2)CC1 [2b, 1-(4-(4-Ethylpiperazin-1-yl)phenyl)-3-(naphthalen-1-yl)prop-2-en-1-one] | 45.8 ± 8.4 | > 100 | 22.9 ± 0.76 |  |  |  |  |  | 
31.3 (≈ 81.4 µM) | > 100 | 62.5 (≈ 163 µM) | > 100 | 62.5 (≈ 163 µM) | 31.3 (≈ 81.4 µM) | 146.8 to 147.5 | 15.6 (≈ 40.6 µM) | 62.5 (≈ 163 µM) | > 100 |  | CC(C)N1CCN(c2ccc(C(=O)C=Cc3cccc4ccccc34)cc2)CC1 [2c, 1-(4-(4-Isopropylpiperazin-1-yl)phenyl)-3-(naphthalen-1-yl)prop-2-en-1-one] | 96.1 ± 5.46 | 34.3 ± 5.56 | > 100 |  |  |  |  |  | 
15.6 (≈ 40.8 µM) | > 100 | 62.5 (≈ 163 µM) | > 100 | 62.5 (≈ 163 µM) | 31.3 (≈ 81.8 µM) | 120.2 to 121.9 | 31.3 (≈ 81.8 µM) | > 100 | > 100 | 15.7 (≈ 41 µM) | C=CCN1CCN(c2ccc(C(=O)C=Cc3cccc4ccccc34)cc2)CC1 [2d, 1-(4-(4-Allylpiperazin-1-yl)phenyl)-3-(naphthalen-1-yl)prop-2-en-1-one] | 45.1 ± 8.12 | 71.1 ± 3.08 | 19.8 ± 1.31 |  |  |  |  |  | 
31.3 (≈ 78.1 µM) | > 100 | 62.5 (≈ 156 µM) | > 100 | 62.5 (≈ 156 µM) | 31.3 (≈ 78.1 µM) | 136.2 to 137.8 | 15.6 (≈ 38.9 µM) | 62.5 (≈ 156 µM) | > 100 |  | COCCN1CCN(c2ccc(C(=O)C=Cc3cccc4ccccc34)cc2)CC1 [2e, 1-(4-(4-(2-Methoxyethyl)piperazin-1-yl)phenyl)-3-(naphthalen-1-yl)prop-2-en-1-one] | 45.5 ± 2.5 | 20.6 ± 0.52 | 19.8 ± 0.81 |  |  |  |  |  | 
31.3 (≈ 87.8 µM) | > 100 | > 100 | > 100 | > 100 | 15.6 (≈ 43.8 µM) | 204.5 to 206.2 | 62.5 (≈ 175 µM) | 31.3 (≈ 87.8 µM) | > 100 |  | CN1CCN(c2ccc(C(=O)C=Cc3ccc4ccccc4c3)cc2)CC1 [2f, 1-(4-(4-Methylpiperazin-1-yl)phenyl)-3-(naphthalen-2-yl)prop-2-en-1-one] | 29.7 ± 0.79 | 35.7 ± 0.37 | 25.6 ± 0.26 |  |  |  |  |  | 
31.3 (≈ 84.5 µM) | > 100 | > 100 | > 100 | > 100 | 62.5 (≈ 169 µM) | 196.5 to 198 | 31.3 (≈ 84.5 µM) | > 100 | > 100 |  | CCN1CCN(c2ccc(C(=O)C=Cc3ccc4ccccc4c3)cc2)CC1 [2g, 1-(4-(4-Ethylpiperazin-1-yl)phenyl)-3-(naphthalen-2-yl)prop-2-en-1-one] | 35.6 ± 0.98 | 39.1 ± 1.24 | 52.4 ± 2.57 |  |  |  |  |  | 
31.3 (≈ 81.4 µM) | > 100 | > 100 | > 100 | > 100 | 62.5 (≈ 163 µM) | 213.3 to 214.9 | 31.3 (≈ 81.4 µM) | > 100 | > 100 |  | CC(C)N1CCN(c2ccc(C(=O)C=Cc3ccc4ccccc4c3)cc2)CC1 [2h, 1-(4-(4-Isopropylpiperazin-1-yl)phenyl)-3-(naphthalen-2-yl)prop-2-en-1-one] | 46.3 ± 1.25 | 41.3 ± 1.5 | 66.5 ± 0.98 |  |  |  |  |  | 
31.3 (≈ 81.8 µM) | > 100 | > 100 | > 100 | > 100 | 31.3 (≈ 81.8 µM) | 186.9 to 188.8 | 31.3 (≈ 81.8 µM) | > 100 | > 100 |  | C=CCN1CCN(c2ccc(C(=O)C=Cc3ccc4ccccc4c3)cc2)CC1 [2i, 1-(4-(4-Allylpiperazin-1-yl)phenyl)-3-(naphthalen-2-yl)prop-2-en-1-one] | 97.1 ± 4.94 | 21.4 ± 2.56 | > 100 |  |  |  |  |  | 
< 0.97 | < 0.97 | < 0.97 | < 0.97 |  | < 0.97 |  |  | < 0.97 |  |  | CC[C@H]1OC(=O)[C@H](C)[C@@H](O[C@H]2C[C@@](C)(OC)[C@@H](O)[C@H](C)O2)[C@H](C)[C@@H](O[C@@H]2O[C@H](C)C[C@H](N(C)C)[C@H]2O)[C@](C)(O)C[C@@H](C)CN(C)[C@H](C)[C@@H](O)[C@]1(C)O [SD1, Azithromycin, reference compound] |  |  |  |  |  |  |  |  | 
 |  |  |  | 3.9 (≈ 11.2 µM) |  |  | 3.9 (≈ 11.2 µM) |  | 1.95 (≈ 5.58 µM) |  | C[C@@H](c1ncncc1F)[C@](O)(Cn1cncn1)c1ccc(F)cc1F [SD2, Voriconazole, reference compound] |  |  |  |  |  |  |  |  | 
 |  |  |  | 7.81 (≈ 25.5 µM) |  |  | 7.81 (≈ 25.5 µM) |  | 3.9 (≈ 12.7 µM) |  | OC(Cn1cncn1)(Cn1cncn1)c1ccc(F)cc1F [SD3, Fluconazole, reference compound] |  |  |  |  |  |  |  |  | 
 |  |  |  |  |  |  |  |  |  |  | COc1cccc2c1C(=O)c1c(O)c3c(c(O)c1C2=O)C[C@@](O)(C(=O)CO)C[C@@H]3O[C@H]1C[C@H](N)[C@H](O)[C@H](C)O1 [SD4, Doxorubicin, reference compound] | 9.47 ± 1.49 | 2.97 ± 0.16 | > 100 | 8.84 | 8.55 | 80.85 | 1.76 | 17.4 | 30.270
